Experimental data as given in patent US6713638B2, “2-amino-3-aroyl-4,5 alkylthiophenes: agonist allosteric enhancers at human A1 adenosine receptors” (priority 2001, dated 2004).

Assays:
[1] = test system: adenosine A1 receptors; conditions: background statement, cited from earlier work
[2] = target: T1, hA1AR (Homo sapiens, UniProt P30542); experiment: Assay of AE (allosteric enhancer) activity: slowing of 125I-ABA dissociation from the A1AR-G protein ternary complex; format: binding; conditions: CHO-K1 membranes; for AE Score, %: 0.1 mM final AE, specifically bound 125I-ABA remaining after 10 minutes of dissociation, Mean ± SEM (N = 3)
T1 construct: expressed in transfected cells; membranes
T1 sequence (P30542 1-326): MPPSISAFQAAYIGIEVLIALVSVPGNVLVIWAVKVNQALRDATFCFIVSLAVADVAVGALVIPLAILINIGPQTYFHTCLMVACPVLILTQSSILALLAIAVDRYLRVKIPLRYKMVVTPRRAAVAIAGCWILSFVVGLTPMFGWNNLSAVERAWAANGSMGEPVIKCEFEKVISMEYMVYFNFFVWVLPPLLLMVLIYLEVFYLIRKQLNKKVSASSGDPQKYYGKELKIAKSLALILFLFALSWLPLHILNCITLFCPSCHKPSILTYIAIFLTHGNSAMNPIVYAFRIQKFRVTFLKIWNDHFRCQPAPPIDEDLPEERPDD
Excerpt: The allosteric enhancer (AE) activity was studied at the human A1AR (hA1AR) of a panel of compounds consisting of nine 2-amino-3-aroylthiophenes, (3a-i), eight 2-amino-3-benzoyl-4,5-dimethylthiophenes (13a-h), […] 3-aroyl-2-carboxy-4,5-dimethylthiophenes, (17a-e), ten 2-amino-3-benzoyl-5,6-ihydro-4H-cyclopenta[b]thiophenes, (19a-I), fourteen 2-amino-3-benzoyl-4,5,6,7-tetrahyd robenzo-[b]thiophenes, (20a-n), and fifteen 2-amino-3-benzoyl-5,6,7,8-tetrahydro-4H-cyclohepta[b]thiophenes, (21a-o). An in vitro assay employing the A1AR agonist ^125I-N^6-aminobenzyladenosine (^125I-ABA) and membranes from CHO-K1 cells stably expressing the hA1AR measured, as an index of AE activity, the ability of a candidate AE to slow the dissociation of the radioligand from the A1AR-G protein ternary complex.
The assay of AE activity consisted of three phases: formation of the ^125I-ABA-A1AR-G protein ternary complex; binding of the AE to the allosteric site, and dissociation of the complex by adding a combination of an A1AR antagonist (100 μM cyclopentyltheophylline) and 50 µM GTPγS. This procedure detects only AE activity since phase 3 (dissociation) is affected only by the allosteric activity of the test compound and is not affected by competitive antagonist activity. GTPγS is added to accelerate the dissociation process. […] The assay employed membranes from CHO-K1 cells stably expressing the hA1AR. For agonist binding to equilibrium, the incubation mixture consisted of 10 mM HEPES, pH 7.2, containing 0.5 mM MgCl2, 1 U/mL adenosine deaminase, 0.5 nM ^125I-ABA and 10 μg of membrane protein in a final volume of 100 μL. This phase of the assay was allowed to proceed to equilibrium (>90 minutes) at room temperature. At that point phase 2 was initiated by adding 50 μL of a 0.3 mM solution (0.1 mM final) of a candidate AE or DMSO vehicle to rapidly occupy the allosteric site. Stock solutions of AEs (10 mM) were prepared in DMSO. Five minutes later phase 3 was initiated by the addition of 50 μL of a solution containing 400 μM 8-cyclopentyltheophylline and 200 μM GTPγS. Ten minutes later, residual radioligand bound to Aireceptors was trapped on Whatman GF/C glass fiber filters using a Brandel cell harvester, washed 3 times over a 20 second interval and counted in a γ-counter. The percentage of specifically bound agonist remaining after 10 minutes of dissociation was used to calculate the “score” of AE activity:
AE activity score=100×(B−Bo)/(Beq−Bo)
Where B=residual binding (cpm) bound at the end of 10 minutes of dissociation in the presence of an AE, Bo=residual binding (cpm) at the end of 10 minutes of dissociation in the absence of an AE, and Beq=cpm bound at the end of phase 2. A compound with no AE activity has a score of 0 in this assay. An AE which completely arrests agonist dissociation will have a score of 100.

[3] = target: T2, A1AR (Homo sapiens, UniProt P30542); experiment: A1AR antagonistic activity: competition with equilibrium binding of [3H]CPX; conditions: 100 μM, N = 3; for inhibition at 100 µM: read-out: Antagonist activity, % (% inhibition of specific equilibrium binding of [3H]8-cyclopentyl-1,3-dipropylxanthine)
T2 sequence (P30542 1-326): T1 sequence (P30542 1-326)
Excerpt: Several of the candidate AEs had substantial antagonistic activity. However, the AE and antagonist activities are unrelated (r^2=0.057, n=28).

Row | SMILES | melting point [°C] | inhibition at 100 µM [3] [%] | Antagonist activity, % (% inhibition of specific equilibrium binding of [3H]8-cyclopentyl-1,3-dipropylxanthine) [3] [%] | enhancement at A1 receptors [1] | selectivity for adenosine A1 receptors ([1]; other adenosine receptor subtypes, other classes of receptors) | AE Score, % [2] [%] | AE activity (in words) ([2]; hA1AR)
1 | Cc1sc(N)c(C(=O)c2cccc(C(F)(F)F)c2)c1C [PD 81,723] | – | – | – | enhancement at A1 receptors of all species tested to date | no effects on other adenosine receptor subtypes or on other classes of receptors | – | –
2 | Nc1sccc1C(=O)c1ccccc1 [Compound 3a, 2-Amino-3-benzoylthiophene] | 147 | 24 | – | – | – | 0.2 ± 0.01 | –
3 | NC1SC2=CCCC2=C1C(=O)c1cccc(Br)c1 (stereo not drawn) [Compound 19d, 2-Amino-3-(3-bromobenzoyl)-4,5-dihydrocyclopenta[b]thiophene] | 202 | 76 | – | – | – | 13 ± 3 | –
4 | Nc1sc2c(c1C(=O)c1ccc(-c3ccccc3)cc1)CCCC2 [Compound 20l, 2-Amino-3-(4-phenylbenzoyl)-4,5,6,7-tetrahydrobenzo[b]thiophene] | 110 | – | – | – | – | 33 ± 2 | excellent activity

The next lines start with results.

Row | melting point [°C] | inhibition at 100 µM [3] [%] | Antagonist activity, % (% inhibition of specific equilibrium binding of [3H]8-cyclopentyl-1,3-dipropylxanthine) [3] [%] | SMILES | enhancement at A1 receptors [1] | selectivity for adenosine A1 receptors ([1]; other adenosine receptor subtypes, other classes of receptors) | AE Score, % [2] [%] | AE activity (in words) ([2]; hA1AR)
5 | – | – | 12 | Nc1sc2c(c1C(=O)c1cccc(Br)c1)CCCCC2 [Compound 21d] | – | – | 78 ± 2.6 | –
6 | – | – | 45 | Nc1sc2c(c1C(=O)c1ccc(C3CCCCC3)cc1)CCCC2 [Compound 20m] | – | – | 99 ± 6 | –
